Data as given in the supplement of paper PMC10307832.

Columns and labels:
Assay in all cases: relative viability (nuclei count vs DMSO), 5 days (fraction); higher = more cells survive
Ruxolitinib + Navitoclax = compound: N#CC[C@H](C1CCCC1)n1cc(-c2ncnc3[nH]ccc23)cn1 [Ruxolitinib] + CC1(C)CCC(c2ccc(Cl)cc2)=C(CN2CCN(c3ccc(C(=O)NS(=O)(=O)c4ccc(N[C@H](CCN5CCOCC5)CSc5ccccc5)c(S(=O)(=O)C(F)(F)F)c4)cc3)CC2)C1 [Navitoclax] (partner 0.5 µM)
Method in brief: (§1)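 A single step with final 0.05% Triton X-100, 1% formaldehyde and 1 ug/ml Hoechst fixed the cells and stained nuclei 5 days after treatment. Lung cancer cell lines in 1536-well plates had been treated by pin tool the day after seeding with one drug alone or a fixed anchor-drug dose plus five library-drug doses (not always all listed) in √10 steps, and nuclei were counted on 4× images. Relative viability is the ratio of nuclei in treated wells to nuclei in vehicle wells, taken as the median of duplicate plates.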

Ruxolitinib + Pemetrexed = compound: N#CC[C@H](C1CCCC1)n1cc(-c2ncnc3[nH]ccc23)cn1 [Ruxolitinib] + Nc1nc2[nH]cc(CCc3ccc(C(=O)N[C@@H](CCC(=O)O)C(=O)O)cc3)c2c(=O)[nH]1 [Pemetrexed] (partner 0.2 µM)
Method in brief: as §1

Vismodegib + Tozasertib = compound: CS(=O)(=O)c1ccc(C(=O)Nc2ccc(Cl)c(-c3ccccn3)c2)c(Cl)c1 [Vismodegib] + Cc1cc(Nc2cc(N3CCN(C)CC3)nc(Sc3ccc(NC(=O)C4CC4)cc3)n2)n[nH]1 [Tozasertib] (partner 0.1 µM)
Method in brief: as §1

Vismodegib + Bortezomib = compound: CS(=O)(=O)c1ccc(C(=O)Nc2ccc(Cl)c(-c3ccccn3)c2)c(Cl)c1 [Vismodegib] + CC(C)C[C@H](NC(=O)[C@H](Cc1ccccc1)NC(=O)c1cnccn1)B(O)O [Bortezomib] (partner 0.002 µM)
Method in brief: as §1

Cell Line	relative viability (Ruxolitinib + Navitoclax; first compound 0.08 µM)	relative viability (Ruxolitinib + Navitoclax; first compound 0.253 µM)	relative viability (Ruxolitinib + Navitoclax; first compound 0.8 µM)	relative viability (Ruxolitinib + Navitoclax; first compound 2.53 µM)	relative viability (Ruxolitinib + Navitoclax; first compound 8 µM)	relative viability (Ruxolitinib + Pemetrexed; first compound 0.08 µM)	relative viability (Ruxolitinib + Pemetrexed; first compound 0.253 µM)	relative viability (Ruxolitinib + Pemetrexed; first compound 0.8 µM)	relative viability (Ruxolitinib + Pemetrexed; first compound 2.53 µM)	relative viability (Ruxolitinib + Pemetrexed; first compound 8 µM)	relative viability (Vismodegib + Tozasertib; first compound 0.08 µM)	relative viability (Vismodegib + Tozasertib; first compound 0.253 µM)	relative viability (Vismodegib + Tozasertib; first compound 0.8 µM)	relative viability (Vismodegib + Tozasertib; first compound 2.53 µM)	relative viability (Vismodegib + Tozasertib; first compound 8 µM)	relative viability (Vismodegib + Bortezomib; first compound 0.08 µM)	relative viability (Vismodegib + Bortezomib; first compound 0.253 µM)	relative viability (Vismodegib + Bortezomib; first compound 0.8 µM)	relative viability (Vismodegib + Bortezomib; first compound 2.53 µM)	relative viability (Vismodegib + Bortezomib; first compound 8 µM)
NCI-H2170	0.6	0.575	0.618	0.593	0.48	0.256	0.262	0.259	0.266	0.276	0.733	0.664	0.673	0.675	0.743	–	–	–	–	–
NCI-H1623	–	–	–	–	–	–	–	–	–	–	0.403	0.42	0.422	0.418	0.411	–	–	–	–	–
ABC-1	–	–	–	–	–	–	–	–	–	–	0.15	0.153	0.182	0.184	0.158	0.332	0.244	0.331	0.299	0.324
NCI-H727	0.472	0.426	0.627	0.595	0.366	–	–	–	–	–	0.785	0.619	0.644	0.53	0.62	0.876	0.835	0.905	0.939	0.77
NCI-H1563	–	–	–	–	–	0.724	0.744	0.892	0.774	0.544	–	–	–	–	–	0.845	0.881	0.904	0.922	0.906
LCLC-103H	–	–	–	–	–	0.454	0.474	0.45	0.46	0.455	0.503	0.506	0.489	0.437	0.446	1.05	1.03	1.07	0.99	0.983
SW 900	–	–	–	–	–	0.467	0.493	0.485	0.466	0.532	0.52	0.574	0.56	0.426	0.435	–	–	–	–	–
NCI-H1703	1.18	1.23	1.23	0.562	0.611	–	–	–	–	–	–	–	–	–	–	0.368	0.257	0.372	0.342	0.401
NCI-H1395	–	0.993	1.17	1.13	0.944	0.662	0.685	0.856	0.97	0.729	0.823	0.771	0.71	0.667	0.81	–	–	–	–	–
NCI-H358	–	–	–	–	–	0.174	0.152	0.177	0.163	0.126	0.0964	0.104	0.104	0.103	0.0976	–	–	–	–	–
NCI-H1793	0.494	0.374	0.486	0.621	0.266	0.835	0.938	1.15	1.06	0.664	–	0.336	0.393	0.269	0.279	–	–	–	–	–
EBC-1	0.372	0.435	0.402	0.347	0.237	–	–	–	–	–	–	–	–	–	–	0.481	0.564	0.567	0.559	0.67
NCI-H661	–	–	–	–	–	0.925	0.959	0.939	1	0.809	0.352	0.339	0.353	0.359	0.365	0.821	0.806	0.756	0.837	0.829
NCI-H1944	0.998	0.959	1.03	0.887	0.955	0.671	0.68	0.651	0.65	0.694	0.261	0.285	0.26	0.269	0.232	–	–	–	–	–
NCI-H2342	–	–	–	–	–	0.594	0.767	0.812	0.752	0.733	0.508	0.492	0.477	0.511	0.461	–	–	–	–	–
NCI-H1299	1.03	1.05	1.02	1.02	0.85	–	–	–	–	–	–	–	–	–	–	1.01	0.985	1.04	1.01	0.973
Calu-6	0.836	0.858	0.862	0.767	0.294	–	–	–	–	–	–	–	–	–	–	0.969	1.03	1.02	1.05	0.987
NCI-H1792	0.658	0.644	0.595	0.473	0.519	0.883	0.608	0.778	0.564	0.425	–	–	–	–	–	0.953	0.974	0.929	0.946	0.93
IA-LM	0.821	0.85	0.913	0.743	0.395	–	–	–	–	–	–	–	–	–	–	0.892	0.825	0.867	0.754	0.795
NCI-H650	–	–	–	–	–	0.898	0.98	0.958	0.966	0.683	0.725	0.778	0.705	0.743	0.718	0.855	0.735	0.795	0.732	0.687
NCI-H1648	–	–	–	–	–	0.674	0.838	0.739	0.923	1.02	0.395	0.461	0.348	0.427	0.562	–	–	–	–	–
NCI-H522	–	–	–	–	–	1.04	0.973	1.05	0.964	0.857	0.534	0.508	0.529	0.548	0.577	–	–	–	–	–
A549	1.2	1.16	1.21	0.961	0.508	–	–	–	–	–	–	–	–	–	–	–	–	–	–	–
